# Experiments:
# Format in all cases: cell-based
# [1] = tested on: programmed cell death ligand 1 (PDL1); assay: tumor cell PDL1 surface expression
# MCF-7 cells = assay: flow cytometry apoptosis (annexin V and PI), MCF-7 cells with human CD8 T cells
# Excerpt: (§1) FIGS. 5 to 96 are flow cytometry plots testing the disclosed bispecific antibodies. Table 1 summarizes flow cytometry results measuring apoptosis with annexin V and PI in gated populations of MCF-7 and MDA-231 cells treated with human CD8 T cells with bi-specific antibodies plus or minus the photosensitizing compound verteporfin.
# MDA-231 cells = assay: flow cytometry apoptosis (annexin V and PI), MDA-231 cells with human CD8 T cells
# Excerpt: as §1
substance,measurement,setting,value
verteporfin [Vs],tumor cell PDL1 surface expression,[1],reduce tumor cell programmed cell death ligand 1 (PDL1) surface expression
same,Control group (%) viable cells,MCF-7 cells; CD8 + Vs (1 μM),(19) %
same,Control group (%) viable cells,MCF-7 cells; CD8 + Vs (2 μM),(13.3) %
same,Control group (%) viable cells,MCF-7 cells; CD8 + Vs (5 μM),(7.51) %
same,Control group (%) viable cells,MDA-231 cells; CD8 + Vs (1 μM),(56.3) %
same,Control group (%) viable cells,MDA-231 cells; CD8 + Vs (2 μM),(57.4) %
same,Control group (%) viable cells,MDA-231 cells; CD8 + Vs (5 μM),(55.3) %

# Reference: patent publication US12624122B2, “Affinity maturated TAG72 specific single chain antibodies” (H. Lee Moffitt Cancer Center and Research Institute, Inc., priority 2016, dated 2026)
